Experimental findings from patent US8940756B2, “Dihydronaphthyridines and related compounds useful as kinase inhibitors for the treatment of proliferative diseases” (Deciphera Pharmaceuticals, Inc., priority 2012, dated 2015) are described below.

The target in assay [1] is Phospho-KIT (Tyr719) in GIST48 cells (Homo sapiens, UniProt P10721). As to the kind of experiment: GIST48 KIT Western Blot. The assay is classed as cell-based. The conditions noted are these: 4 hours, read-out: pKIT suppression by western blot analysi GIST48. (A western blot detects proteins with antibodies after separation by electrophoresis.)
Phospho-KIT (Tyr719) in GIST48 cells, sequence (P10721 whole entry V560D/D820A, form open): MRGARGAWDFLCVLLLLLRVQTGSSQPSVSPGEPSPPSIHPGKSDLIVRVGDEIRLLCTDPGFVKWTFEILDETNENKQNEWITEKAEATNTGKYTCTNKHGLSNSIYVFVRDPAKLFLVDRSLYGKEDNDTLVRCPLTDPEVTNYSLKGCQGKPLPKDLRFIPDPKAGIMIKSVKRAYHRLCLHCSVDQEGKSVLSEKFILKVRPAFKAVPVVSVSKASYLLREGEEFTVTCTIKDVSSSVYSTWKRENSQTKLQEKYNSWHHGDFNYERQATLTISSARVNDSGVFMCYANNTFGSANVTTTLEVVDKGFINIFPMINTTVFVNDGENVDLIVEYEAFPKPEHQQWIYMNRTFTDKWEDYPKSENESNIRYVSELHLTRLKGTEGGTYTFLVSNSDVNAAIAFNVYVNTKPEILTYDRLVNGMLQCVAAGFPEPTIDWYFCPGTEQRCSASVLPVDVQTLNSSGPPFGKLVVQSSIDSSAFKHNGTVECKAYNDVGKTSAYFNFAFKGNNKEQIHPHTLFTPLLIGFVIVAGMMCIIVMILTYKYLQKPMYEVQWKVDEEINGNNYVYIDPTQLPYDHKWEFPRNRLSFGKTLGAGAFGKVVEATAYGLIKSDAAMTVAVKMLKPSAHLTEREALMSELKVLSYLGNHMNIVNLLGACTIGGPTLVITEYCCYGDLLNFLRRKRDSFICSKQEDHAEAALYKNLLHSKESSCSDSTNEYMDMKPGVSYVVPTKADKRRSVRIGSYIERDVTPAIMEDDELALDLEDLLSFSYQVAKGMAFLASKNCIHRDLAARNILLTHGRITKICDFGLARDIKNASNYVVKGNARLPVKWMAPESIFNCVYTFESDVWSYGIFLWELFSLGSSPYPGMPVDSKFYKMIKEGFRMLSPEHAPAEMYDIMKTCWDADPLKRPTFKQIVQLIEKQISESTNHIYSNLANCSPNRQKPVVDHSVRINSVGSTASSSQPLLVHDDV
For assay [2], the system named is GIST430 cells. Put plainly: GIST 430 Cell Proliferation Assay. It is filed as cell-based. The following applies: Homo sapiens, resazurin, 115 hours + 5 hours. As for the experimental part:
(§1) GIST48, GIST430, and GIST882 cells were obtained from J. Fletcher (Brigham and Women's Hospital, Boston, Mass.). GIST T1 cells were obtained from B. Rubin (Cleveland Clinic, Cleveland, Ohio) and Professor Takahiro Taguchi (Kochi Medical School, Nankoku, Kochi, Japan). Briefly, GIST48 and GIST 882 cells were grown in RPMI 1640 medium supplemented with 15% characterized fetal bovine serum (Invitrogen, Carlsbad, Calif.), 1 unit/mL penicillin G, 1 μg/ml streptomycin, and 0.29 mg/mL L-glutamine at 37° C., 5% CO2, and 95% humidity. GIST430 cells were grown in Ham's F10 medium supplemented with 15% characterized fetal bovine serum (Invitrogen, Carlsbad, Calif.), 30 mg/L bovine pituitary extract (BD Biosciences, San Jose, Calif.), 0.5% Mito+ serum extender (BD Biosciences, San Jose, Calif.), 1 unit/mL penicillin G, 1 μg/ml streptomycin, and 0.29 mg/mL L-glutamine at 37° C., 5% CO2, 95% humidity. GIST T1 cells were grown in DMEM medium supplemented with 10% characterized fetal bovine serum (Invitrogen, Carlsbad, Calif.), 1 unit/mL penicillin G, 1 ng/ml streptomycin, and 0.29 mg/mL L-glutamine at 37° C., 5% CO2, and 95% humidity.
A serial dilution of test compound was dispensed into a 384-well black clear bottom plate (Corning, Corning, N.Y.). Two thousand five-hundred cells were added per well in 50 μL complete growth medium. Plates were incubated for 115 hours at 37° C., 5% CO2, 95% humidity. At the end of the incubation period 10 μL of a 440 μM solution of resazurin (Sigma, St. Louis, Mo.) in PBS was added to each well and incubated for an additional 5 hours at 37° C., 5% CO2, 95% humidity. Plates were read on a Synergy2 reader (Biotek, Winooski, Vt.) using an excitation of 540 nm and an emission of 600 nm.

The target in assay [3] is Phospho-KIT (Tyr719) in GIST430 cells (Homo sapiens, UniProt P10721). As to the kind of experiment: GIST430 KIT Western Blot. The assay is classed as cell-based. The conditions noted are these: 4 hours, read-out: pKIT suppression by western blot analysi GIST430.
Phospho-KIT (Tyr719) in GIST430 cells, sequence (P10721 with tags, fused parts or gaps DEL560-576/V654A, form open): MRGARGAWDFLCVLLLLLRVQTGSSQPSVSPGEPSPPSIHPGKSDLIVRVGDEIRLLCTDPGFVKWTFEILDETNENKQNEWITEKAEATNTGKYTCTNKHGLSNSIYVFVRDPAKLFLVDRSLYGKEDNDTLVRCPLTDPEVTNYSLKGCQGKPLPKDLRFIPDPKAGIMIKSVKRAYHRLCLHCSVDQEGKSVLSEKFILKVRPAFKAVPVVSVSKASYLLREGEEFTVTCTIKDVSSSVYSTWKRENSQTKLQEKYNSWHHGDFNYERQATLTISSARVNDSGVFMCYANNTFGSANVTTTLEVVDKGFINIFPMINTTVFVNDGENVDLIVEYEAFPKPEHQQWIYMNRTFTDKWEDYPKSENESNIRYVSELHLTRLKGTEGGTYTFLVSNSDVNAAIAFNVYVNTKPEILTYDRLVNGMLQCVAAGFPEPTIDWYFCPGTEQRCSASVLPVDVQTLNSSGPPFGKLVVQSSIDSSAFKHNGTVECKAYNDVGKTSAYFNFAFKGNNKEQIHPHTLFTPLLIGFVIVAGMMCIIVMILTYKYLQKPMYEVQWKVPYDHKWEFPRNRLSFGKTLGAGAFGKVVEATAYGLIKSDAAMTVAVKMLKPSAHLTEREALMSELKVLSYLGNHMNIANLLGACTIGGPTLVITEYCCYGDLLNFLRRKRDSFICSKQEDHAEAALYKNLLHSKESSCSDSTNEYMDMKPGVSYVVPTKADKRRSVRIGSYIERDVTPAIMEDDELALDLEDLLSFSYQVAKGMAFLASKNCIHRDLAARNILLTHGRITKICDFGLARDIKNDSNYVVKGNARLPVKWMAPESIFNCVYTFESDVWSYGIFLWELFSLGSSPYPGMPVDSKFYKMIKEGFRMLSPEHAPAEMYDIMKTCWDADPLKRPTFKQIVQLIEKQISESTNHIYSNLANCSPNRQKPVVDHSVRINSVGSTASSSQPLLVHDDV
Assay [4] has as its target T1, c-KIT T670I kinase (Seq ID no. 6) (Homo sapiens, UniProt P10721, T670I).
T1 construct: GST (N); TEV cleavage site (N); purchased deCODE Biostructures
Put plainly: c-KIT T670I Kinase Assay. It is filed as biochemical. The following applies: enzymatic assay, ATP 200 uM. As for the experimental part:
(§2) In this assay, the oxidation of NADH (measured by decrease in absorbance at 340 nm) was continuously monitored spectrophotometrically. […] The inhibition reaction was started by mixing serial diluted test compound with the above reaction mixture. The absorption at 340 nm was monitored continuously for 5 hours at 30° C. on Synergy 2 plate reader (BioTech). […] The protein construct was prepared by deCODE Biostructures using procedures known in the art. The construct contains […] of cKit, an N-terminal tag, a GST-fusion sequence and a TEV cleavage site. This construct is identical to Seq ID no.

Assay [5] deals with T2, c-KIT VVDV kinase (V559 and V560 deleted and D816V mutation, Seq ID no. 5) (Homo sapiens, UniProt P10721, D816V/DEL559-560).
T2 construct: This construct contains residues T544-V976 of cKit (except for the D816V mutation and the deletion of residues V559 and V560); GST (N); TEV cleavage site (N); purchased deCODE Biostructures
T2 sequence (P10721 with tags, fused parts or gaps DEL559-560/D816V): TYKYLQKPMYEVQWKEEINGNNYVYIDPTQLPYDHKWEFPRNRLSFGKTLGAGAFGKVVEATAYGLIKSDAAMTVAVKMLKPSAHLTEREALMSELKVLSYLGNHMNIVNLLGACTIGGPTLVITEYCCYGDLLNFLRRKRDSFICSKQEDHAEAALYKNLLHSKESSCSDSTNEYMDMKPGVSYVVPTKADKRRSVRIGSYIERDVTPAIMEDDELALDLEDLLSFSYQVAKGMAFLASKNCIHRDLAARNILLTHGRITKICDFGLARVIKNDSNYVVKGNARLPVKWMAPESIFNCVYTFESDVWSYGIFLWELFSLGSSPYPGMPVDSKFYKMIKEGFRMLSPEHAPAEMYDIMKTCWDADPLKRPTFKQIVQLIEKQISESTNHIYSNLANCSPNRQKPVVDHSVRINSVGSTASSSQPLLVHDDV
Put plainly: cKIT-VVDV Kinase Assay. The assay is classed as biochemical. The conditions noted are these: enzymatic assay, ATP 200 uM. As for the experimental part:
as §2, with “art. This” for “art. The”, “of cKit (except for the D816V […]),” for “of cKit,”, “no. 1 except for the D816V […].” for “no.”

Assay [6] addresses T3, Phospho-KIT (Tyr719) in GIST882 cells (Homo sapiens, UniProt P10721, K642E).
T3 construct: endogenous in cells; host or cells: GIST882
Put plainly: GIST882 KIT Western Blot. It is filed as cell-based. The conditions noted are these: 4 hours, read-out: pKIT suppression by western blot analysi GIST 882. As for the experimental part:
GIST48, GIST430, and GIST882 cells were obtained from J. Fletcher (Brigham and Women's Hospital, Boston, Mass.). GIST T1 cells were obtained from B. Rubin (Cleveland Clinic, Cleveland, Ohio) and Professor Takahiro Taguchi (Kochi Medical School, Nankoku, Kochi, Japan). […] GIST430 cells were grown in Ham's F10 medium supplemented with 15% characterized fetal bovine serum (Invitrogen, Carlsbad, Calif.), 30 mg/L bovine pituitary extract (BD Biosciences, San Jose, Calif.), 0.5% Mito+ serum extender (BD Biosciences, San Jose, Calif.), 1 unit/mL penicillin G, 1 μg/ml streptomycin, and 0.29 mg/mL L-glutamine at 37° C., 5% CO2, 95% humidity. GIST T1 cells were grown in DMEM medium supplemented with 10% characterized fetal bovine serum (Invitrogen, Carlsbad, Calif.), 1 unit/mL penicillin G, 1 ng/ml streptomycin, and 0.29 mg/mL L-glutamine at 37° C., 5% CO2, and 95% humidity. Cells were allowed to expand until reaching 70-95% confluence at which point they were subcultured or harvested for assay use.
Two hundred fifty thousand cells were added per well in a 24-well tissue-culture treated plate. Cells were then incubated overnight at 37° C., 5% CO2, 95% humidity. Medium was aspirated, cells were washed with PBS, and serum-free RPMI1640 medium was added. A serial dilution of test compound was added to plates containing cells and plates were incubated for 4 hours at 37° C., 5% CO2, 95% humidity. Cells were washed with PBS, then lysed. Cell lysates were separated by SDS-PAGE and transferred to PVDF. Phospho-KIT (Tyr719) was detected using an antibody from Cell Signaling Technology (Beverly, Mass.), ECL Plus detection reagent (GE Healthcare, Piscataway, N.J.) and a Molecular Devices Storm 840 phosphorimager in fluorescence mode. Blots were stripped and probed for total KIT using an antibody from Santa Cruz Biotech (Santa Cruz, Calif.). IC50 values were calculated using Prism software (Graphpad, San Diego, Calif.).

For assay [7], the target named is T4, c-KIT kinase (Seq ID no. 1) (Homo sapiens, UniProt P10721).
T4 construct: GST (N); TEV cleavage site (N); purchased deCODE Biostructures
T4 sequence (P10721 with tags, fused parts or gaps): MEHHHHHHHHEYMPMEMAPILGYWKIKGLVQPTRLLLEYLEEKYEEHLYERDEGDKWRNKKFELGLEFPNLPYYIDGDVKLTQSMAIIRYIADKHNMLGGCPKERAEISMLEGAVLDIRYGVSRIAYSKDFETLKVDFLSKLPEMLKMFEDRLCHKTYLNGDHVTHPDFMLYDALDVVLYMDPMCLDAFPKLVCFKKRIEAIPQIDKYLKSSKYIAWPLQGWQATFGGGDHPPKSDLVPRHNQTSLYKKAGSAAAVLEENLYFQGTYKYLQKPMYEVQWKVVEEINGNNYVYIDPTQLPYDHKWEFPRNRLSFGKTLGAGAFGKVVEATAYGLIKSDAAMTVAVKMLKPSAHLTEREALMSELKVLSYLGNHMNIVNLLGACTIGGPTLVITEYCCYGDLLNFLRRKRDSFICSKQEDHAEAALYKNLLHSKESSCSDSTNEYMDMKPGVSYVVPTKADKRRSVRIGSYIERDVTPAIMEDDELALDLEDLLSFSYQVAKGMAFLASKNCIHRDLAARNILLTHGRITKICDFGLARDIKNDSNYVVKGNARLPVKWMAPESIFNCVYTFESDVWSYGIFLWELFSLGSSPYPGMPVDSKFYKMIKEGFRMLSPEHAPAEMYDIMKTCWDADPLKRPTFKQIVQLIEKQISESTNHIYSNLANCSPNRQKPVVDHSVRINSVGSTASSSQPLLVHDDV
As to the kind of experiment: c-KIT Kinase Assay (pyruvate kinase/lactate dehydrogenase coupled). The assay is classed as biochemical. The conditions noted are these: enzymatic assay, ATP 200 μM; read-out: KIT (wt). As for the experimental part:
In this assay, the oxidation of NADH (measured by decrease in absorbance at 340 nm) was continuously monitored spectrophotometrically. […] The absorption at 340 nm was monitored continuously for 2 hours at 30° C. on Synergy 2 (BioTeK). The reaction rate was calculated using the 0 to 1 h time frame. Percent inhibition was obtained by comparison of reaction rate with that of a control (i.e. with no test compound). IC50 values were calculated from a series of percent inhibition values determined at a range of inhibitor concentrations using software routines as implemented in the GraphPad Prism software package. The protein construct was prepared by deCODE Biostructures using procedures known in the art. The construct contains […] of cKit, an N-terminal tag, a GST-fusion sequence and a TEV cleavage site.

Assay [8] addresses T5, c-KIT D816V kinase (Seq ID no. 4) (Homo sapiens, UniProt P10721, D816V).
T5 construct: D816V c-KIT (residues T544-V976 with N-terminal GST fusion, 16 nM); purchased deCODE Biostructures
Put plainly: c-KIT D816V kinase Assay. It is filed as biochemical. The following applies: enzymatic assay, ATP 200 uM. As for the experimental part: In this assay, the oxidation of NADH (measured by decrease in absorbance at 340 nm) was continuously monitored spectrophotometrically. […] The inhibition reaction was started by mixing serial diluted test compound with the above reaction mixture. The absorption at 340 nm was monitored continuously for 5 hours at 30° C. on Synergy 2 plate reader (BioTech).
The protein construct was prepared by deCODE Biostructures using procedures known in the art. The construct contains residues T544-V976 of cKit, an N-terminal tag, a GST-fusion sequence and a TEV cleavage site. This construct is identical to Seq ID no. 1 except for the D816V mutation.

In assay [9] the target is T6, c-KIT V654A kinase (Seq ID no. 2) (Homo sapiens, UniProt P10721, V654A).
T6 construct: V654A c-Kit (residues T544-V976 with N-terminal GST fusion, 47 nM); purchased deCODE Biostructures
T6 sequence (P10721 544-976 V654A): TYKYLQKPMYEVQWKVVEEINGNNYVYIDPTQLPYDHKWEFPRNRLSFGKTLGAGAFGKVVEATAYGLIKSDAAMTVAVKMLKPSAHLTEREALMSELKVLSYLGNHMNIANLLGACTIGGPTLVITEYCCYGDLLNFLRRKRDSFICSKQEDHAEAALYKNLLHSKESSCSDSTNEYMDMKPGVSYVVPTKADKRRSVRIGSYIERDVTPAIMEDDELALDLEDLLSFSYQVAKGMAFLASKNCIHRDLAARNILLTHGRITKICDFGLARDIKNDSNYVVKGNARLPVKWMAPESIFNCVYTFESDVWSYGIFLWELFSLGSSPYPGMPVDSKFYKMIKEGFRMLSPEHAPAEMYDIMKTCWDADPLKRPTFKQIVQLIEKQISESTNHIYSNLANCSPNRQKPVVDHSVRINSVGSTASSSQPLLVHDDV
Put plainly: c-KIT V654A Kinase Assay. The conditions noted are these: enzymatic assay, ATP 200 μM. The assay is classed as biochemical. As for the experimental part: In this assay, the oxidation of NADH (measured by decrease in absorbance at 340 nm) was continuously monitored spectrophotometrically. […] The inhibition reaction was started by mixing serial diluted test compound with the above reaction mixture. The absorption at 340 nm was monitored continuously for 6 hours at 30° C. on Synergy 2 plate reader (BioTech).
The protein construct was prepared by deCODE Biostructures using procedures known in the art. The construct contains residues T544-V976 of cKit, an N-terminal tag, a GST-fusion sequence and a TEV cleavage site. This construct is identical to Seq ID no.

Assay [10] has as its system GIST T1 cells. Put plainly: GIST T1 Cell Proliferation Assay. The assay is classed as cell-based. The conditions noted are these: Homo sapiens, GISTT1, 72 h, resazurin, 68 hours + 4 hours. As for the experimental part: as §1
A serial dilution of test compound was dispensed into a 384-well black clear bottom plate (Corning, Corning, N.Y.). […] Plates were read on a Synergy2 reader (Biotek, Winooski, Vt.) using an excitation of 540 nm and an emission of 600 nm.

In assay [11] the target is T7, c-KIT D816H kinase (Seq ID no. 3) (Homo sapiens, UniProt P10721, D816H).
T7 construct: GST (N); TEV cleavage site (N); purchased deCODE Biostructures
T7 sequence (P10721 544-976 D816H): as the sequence (P10721 544-976 V654A) above, with A111V, D273H counted along it
As to the kind of experiment: c-KIT D816H Kinase Assay. It is filed as biochemical. The following applies: enzymatic assay, ATP 200 μM. As for the experimental part: as §2, with “6” for “5”, “no. 1 except for the D816H mutation.” for “no.”

Where only a bound is given, the exact number is not on record here.

T5 sequence (P10721 544-976 D816V): as the sequence (P10721 544-976 V654A) above, with A111V, D273V counted along it
T1 sequence (P10721 544-976 T670I): as the sequence (P10721 544-976 V654A) above, with A111V, T127I counted along it
T3 sequence (P10721 26-976 K642E): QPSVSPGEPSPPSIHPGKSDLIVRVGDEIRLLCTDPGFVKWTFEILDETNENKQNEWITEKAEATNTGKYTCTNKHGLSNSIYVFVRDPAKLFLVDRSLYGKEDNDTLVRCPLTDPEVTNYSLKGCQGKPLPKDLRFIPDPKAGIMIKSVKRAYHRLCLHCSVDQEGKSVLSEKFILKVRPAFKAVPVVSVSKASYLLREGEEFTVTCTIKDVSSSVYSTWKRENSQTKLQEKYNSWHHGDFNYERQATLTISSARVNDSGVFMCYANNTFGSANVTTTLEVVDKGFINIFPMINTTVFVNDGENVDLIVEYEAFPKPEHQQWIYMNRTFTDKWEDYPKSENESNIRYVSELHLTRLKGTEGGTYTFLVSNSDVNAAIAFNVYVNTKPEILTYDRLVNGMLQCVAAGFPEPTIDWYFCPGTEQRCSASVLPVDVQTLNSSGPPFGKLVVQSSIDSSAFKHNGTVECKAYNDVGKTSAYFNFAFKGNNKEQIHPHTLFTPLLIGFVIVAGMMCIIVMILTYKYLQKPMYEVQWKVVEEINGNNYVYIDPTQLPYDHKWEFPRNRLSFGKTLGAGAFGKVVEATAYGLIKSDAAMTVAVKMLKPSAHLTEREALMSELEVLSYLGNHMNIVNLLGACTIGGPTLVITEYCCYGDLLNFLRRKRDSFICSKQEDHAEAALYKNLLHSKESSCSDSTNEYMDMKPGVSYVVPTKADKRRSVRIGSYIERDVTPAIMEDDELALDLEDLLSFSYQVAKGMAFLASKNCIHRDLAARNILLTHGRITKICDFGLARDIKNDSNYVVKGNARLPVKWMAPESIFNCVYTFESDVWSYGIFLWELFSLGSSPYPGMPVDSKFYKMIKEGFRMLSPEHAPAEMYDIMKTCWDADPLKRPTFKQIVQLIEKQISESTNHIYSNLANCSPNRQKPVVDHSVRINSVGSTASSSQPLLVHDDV

As to `CCn1c(=O)c(-c2cc(NC(=O)Nc3ccccc3)c(F)cc2Cl)cc2cnc(NC)cc21` [Example 3, 1-(4-chloro-5-(1-ethyl-7-(methylamino)-2-oxo-1,2-dihydro-1,6-naphthyridin-3-yl)-2-fluorophenyl)-3-phenylurea], the IC50 lay within 100 to 1000 nM in assay [1], 10 to 100 nM in assay [2] and 10 to 100 nM in assay [3].
For the molecule `CCn1c(=O)c(-c2cc(NC(=O)Nc3ccccc3)c(F)cc2C)cc2cnc(NC)cc21` [Example 23, 1-(5-(1-ethyl-7-(methylamino)-2-oxo-1,2-dihydro-1,6-naphthyridin-3-yl)-2-fluoro-4-methylphenyl)-3-phenylurea], the IC50 is 100 to 1000 nM in [1], 10 to 100 nM in assay [2] and 10 to 100 nM in assay [3].
With `CCn1c(=O)c(-c2cc(NC(=O)Nc3ccccc3F)c(F)cc2C)cc2cnc(NC)cc21` [Example 38, 1-(5-(1-ethyl-7-(methylamino)-2-oxo-1,2-dihydro-1,6-naphthyridin-3-yl)-2-fluoro-4-methylphenyl)-3-(2-fluorophenyl)urea], the IC50 in assay [1] is above 1000 nM; in assay [2], 10 to 100 nM; in assay [3], 10 to 100 nM.
Consider `CCn1c(=O)c(-c2cc(NC(=O)Nc3ccccc3)c(F)cc2Br)cc2cnc(NC(C)=O)cc21` [Example 53, 1-(5-(7-acetamido-1-ethyl-2-oxo-1,2-dihydro-1,6-naphthyridin-3-yl)-4-bromo-2-fluorophenyl)-3-phenylurea], for which the IC50 in assay [4] was 10 to 100 nM; in assay [1] it was 100 to 1000 nM; in assay [5], below 10 nM; in assay [6], 10 to 100 nM; in assay [7], below 10 nM; in assay [8], below 10 nM. The IC50 in [3] is below 10 nM; in assay [9], 10 to 100 nM.
Take `CCn1c(=O)c(-c2cc(NC(=O)Nc3ccccc3)c(F)cc2Cl)cc2cnc(NCCCN3CCOCC3)cc21` [Example 92, 1-(4-chloro-5-(1-ethyl-7-((3-morpholinopropyl)amino)-2-oxo-1,2-dihydro-1,6-naphthyridin-3-yl)-2-fluorophenyl)-3-phenylurea]: the IC50 in assay [4] was 10 to 100 nM; in assay [10], at most 10 nM; in [7], below 10 nM; in assay [8], 10 to 100 nM; in assay [11], 10 to 100 nM; in [9], below 10 nM.
